Experimental data from ChEMBL document CHEMBL5380842, “Discovery of a Potent and Selective CCR8 Small Molecular Antagonist IPG7236 for the Treatment of Cancer” (J Med Chem, 2023).
Values after ≈ are worked out from the molar mass of the structure shown.

Key:
[1] = Solubility of compound in PBS at pH 7.4 incubated for 2 hrs by LC-MS/MS analysis; format: physicochemical
[2] = Apparent permeability of compound across apical to basal side in human Caco2 cells at 10 uM incubated for 120 mins by LC-MS/MS analysis; settings: Caco-2
[3] = Apparent permeability of compound across basal to apical side in human Caco2 cells at 10 uM incubated for 120 mins by LC-MS/MS analysis; settings: Caco-2
[4] = Efflux ratio of apparent permeability across basolateral to apical side over apical to basolateral side in human Caco-2 cells at 10 uM incubated for 120 mins by LC-MS/MS analysis
[5] = target: C-C chemokine receptor type 8 (Homo sapiens, UniProt P51685); test: Antagonist activity against CCR8 (unknown origin) expressed in CHO-K1 cells preincubated for 1 hr followed by CCL1 addition measured after 24 hrs by ONE-Glo assay; format: cell-based
C-C chemokine receptor type 8, sequence (P51685 whole entry): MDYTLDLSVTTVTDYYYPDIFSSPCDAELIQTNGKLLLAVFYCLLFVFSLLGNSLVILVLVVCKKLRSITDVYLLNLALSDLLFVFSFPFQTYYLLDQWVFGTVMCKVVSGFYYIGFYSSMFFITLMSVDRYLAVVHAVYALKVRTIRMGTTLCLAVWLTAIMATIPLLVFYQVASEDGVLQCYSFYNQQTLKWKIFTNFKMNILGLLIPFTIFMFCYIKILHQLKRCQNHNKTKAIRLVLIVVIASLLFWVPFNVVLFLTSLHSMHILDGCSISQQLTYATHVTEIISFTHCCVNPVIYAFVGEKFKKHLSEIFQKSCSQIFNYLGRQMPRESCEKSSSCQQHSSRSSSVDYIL

Compound	solubility at 2 h [1]	Papp A→B at 2 h, 10 µM [2]	Papp B→A at 2 h, 10 µM [3]	efflux ratio at 2 h, 10 µM [4]	IC50 [5]
Cc1ccccc1C(=O)Nc1c(C)cc(S(=O)(=O)N[C@H](C)C2CCN(C)CC2)cc1Cl	247 µM (≈ 115 µg/mL)	1.1 ×10⁻⁶ cm/s	19.5 ×10⁻⁶ cm/s	17.7	
CCc1cc(S(=O)(=O)N[C@H](C)C2CCN(C)CC2)ccc1NC(=O)c1ccccc1C		1.5 ×10⁻⁶ cm/s	25.9 ×10⁻⁶ cm/s		
Cc1cc(S(=O)(=O)N[C@H](C)C2CCN(C)CC2)c(C)cc1NC(=O)c1ccccc1C		1 ×10⁻⁶ cm/s	20.1 ×10⁻⁶ cm/s		
Cc1ccccc1C(=O)Nc1ccc(S(=O)(=O)N[C@H](C)C2CCN(C)CC2)cc1C#N		0.2 ×10⁻⁶ cm/s	2.7 ×10⁻⁶ cm/s	13.5	33 nM
Cc1cc(S(=O)(=O)N[C@H](C)C2CCN(C)CC2)ccc1NC(=O)c1ccc(Cl)cc1C		1.1 ×10⁻⁶ cm/s	19.4 ×10⁻⁶ cm/s	17.6	1.7 nM
Cc1cc(S(=O)(=O)N[C@H](C)C2CCN(C)CC2)ccc1NC(=O)c1cc(Cl)ccc1C		1.6 ×10⁻⁶ cm/s	31.4 ×10⁻⁶ cm/s	19.6	1.7 nM
Cc1cc(S(=O)(=O)NCC2CCN(C)CC2)ccc1NC(=O)c1ccccc1C					251 nM
Cc1ccccc1C(=O)Nc1ccc(S(=O)(=O)Nc2cccc3c2N(CCN(C)C)C(=O)CO3)c2ccccc12					> 1000 nM
COCCN1CCC([C@@H](C)NS(=O)(=O)c2ccc(NC(=O)c3ccccc3C)c(C)c2)CC1					79 nM
Cc1cc(S(=O)(=O)N[C@H](C2CC2)C2CCN(C)CC2)ccc1NC(=O)c1ccccc1C		0.3 ×10⁻⁶ cm/s	3.6 ×10⁻⁶ cm/s		
Cc1cc(S(=O)(=O)N[C@H](C)C2CCN(C)CC2)ccc1NC(=O)C1CCCCCC1		2 ×10⁻⁶ cm/s	17.7 ×10⁻⁶ cm/s	8.9	28 nM
Cc1ccccc1C(=O)Nc1ccc(S(=O)(=O)N[C@H](C)C2CCN(C)CC2)cc1Cl	233 µM (≈ 105 µg/mL)	0.7 ×10⁻⁶ cm/s	25.9 ×10⁻⁶ cm/s		
Cc1ccccc1C(=O)Nc1ccc(S(=O)(=O)N[C@H](C)C23CCN(CC2)CC3)c2ccccc12					303 nM
Cc1cc(S(=O)(=O)N[C@H](C)C2CCN(C)CC2)ccc1NC(=O)c1ccsc1C		1.5 ×10⁻⁶ cm/s	25.9 ×10⁻⁶ cm/s		
Cc1cc(S(=O)(=O)N[C@H](C)C2CCN(C)CC2)c(F)cc1NC(=O)c1ccccc1C		2.2 ×10⁻⁶ cm/s	19.8 ×10⁻⁶ cm/s	9	6 nM
Cc1cc(S(=O)(=O)N[C@H](C)C2CCN(C)CC2)c(Cl)cc1NC(=O)c1ccccc1C		2 ×10⁻⁶ cm/s	25.5 ×10⁻⁶ cm/s		

The next lines start with the values.

solubility at 2 h [1]	Papp A→B at 2 h, 10 µM [2]	Papp B→A at 2 h, 10 µM [3]	efflux ratio at 2 h, 10 µM [4]	IC50 [5]	Compound
				4 nM	Cc1ccccc1C(=O)Nc1ccc(S(=O)(=O)NC2CCN(C(=O)N3CCN(C)CC3)CC2)c2ccccc12
				129 nM	COC(=O)CN1CCC([C@@H](C)NS(=O)(=O)c2ccc(NC(=O)c3ccccc3C)c(C)c2)CC1
				> 1000 nM	CCCN1CCN(c2ccc(OC)c(NS(=O)(=O)c3ccc(NC(=O)c4ccccc4C)c4ccccc34)c2)CC1
				> 1000 nM	Cc1ccccc1C(=O)Nc1ccc(S(=O)(=O)NC(C)C2CCCCN2)c2ccccc12 (stereo not given)
				> 1000 nM	CCCN1CCN(c2cccc(NS(=O)(=O)c3ccc(NC(=O)c4ccccc4C)c4ccccc34)c2C)CC1
< 3 µM	1.3 ×10⁻⁶ cm/s	3.4 ×10⁻⁶ cm/s			Cc1ccccc1C(=O)Nc1ccc(S(=O)(=O)N[C@H](C)C2CCN(C)CC2)c2ccccc12
				> 1000 nM	CCCN1CCN(c2ccc(C)c(NS(=O)(=O)c3ccc(NC(=O)c4ccccc4C)c4ccccc34)c2)CC1
				> 1000 nM	CCCN1CCCN(c2cc(NS(=O)(=O)c3ccc(NC(=O)c4ccccc4C)c4ccccc34)ccc2OC)CC1
	2.2 ×10⁻⁶ cm/s	30.4 ×10⁻⁶ cm/s			CCCN1CCC([C@@H](C)NS(=O)(=O)c2ccc(NC(=O)c3ccccc3C)c(C)c2)CC1
				> 1000 nM	CCCC(=O)N1CCCC(CNS(=O)(=O)c2ccc(NC(=O)c3ccccc3C)c3ccccc23)C1 (stereo not given)
				> 1000 nM	CCCC(=O)N1CCCC(C(=O)NS(=O)(=O)c2ccc(NC(=O)c3ccccc3C)c3ccccc23)C1 (stereo not given)
